Laboratory results published in patent publication US10259810B2, “N-sulfonylated pyrazolo[3,4-b]pyridin-6-carboxamides and method of use” (AbbVie S.à.r.l., priority 2015, dated 2019).

What was measured:
Assay type in all cases: cell-based
ΔF508-CFTR [1] = molecular target: T1, ΔF508-CFTR (Homo sapiens, UniProt P13569, DEL508-508); experiment: CFTR cell surface levels using HRP-tagged ΔF508-CFTR expressing CFBE cells, in the presence of a co-corrector; conditions: HRP-tagged ΔF508-CFTR CFBE cells, in the presence of 3 μM co-corrector; for EC50: read-out: EC50
T1 construct: host or cells: CFBE41o-, doxycycline-inducible
T1 sequence (P13569 with tags, fused parts or gaps DEL508-508): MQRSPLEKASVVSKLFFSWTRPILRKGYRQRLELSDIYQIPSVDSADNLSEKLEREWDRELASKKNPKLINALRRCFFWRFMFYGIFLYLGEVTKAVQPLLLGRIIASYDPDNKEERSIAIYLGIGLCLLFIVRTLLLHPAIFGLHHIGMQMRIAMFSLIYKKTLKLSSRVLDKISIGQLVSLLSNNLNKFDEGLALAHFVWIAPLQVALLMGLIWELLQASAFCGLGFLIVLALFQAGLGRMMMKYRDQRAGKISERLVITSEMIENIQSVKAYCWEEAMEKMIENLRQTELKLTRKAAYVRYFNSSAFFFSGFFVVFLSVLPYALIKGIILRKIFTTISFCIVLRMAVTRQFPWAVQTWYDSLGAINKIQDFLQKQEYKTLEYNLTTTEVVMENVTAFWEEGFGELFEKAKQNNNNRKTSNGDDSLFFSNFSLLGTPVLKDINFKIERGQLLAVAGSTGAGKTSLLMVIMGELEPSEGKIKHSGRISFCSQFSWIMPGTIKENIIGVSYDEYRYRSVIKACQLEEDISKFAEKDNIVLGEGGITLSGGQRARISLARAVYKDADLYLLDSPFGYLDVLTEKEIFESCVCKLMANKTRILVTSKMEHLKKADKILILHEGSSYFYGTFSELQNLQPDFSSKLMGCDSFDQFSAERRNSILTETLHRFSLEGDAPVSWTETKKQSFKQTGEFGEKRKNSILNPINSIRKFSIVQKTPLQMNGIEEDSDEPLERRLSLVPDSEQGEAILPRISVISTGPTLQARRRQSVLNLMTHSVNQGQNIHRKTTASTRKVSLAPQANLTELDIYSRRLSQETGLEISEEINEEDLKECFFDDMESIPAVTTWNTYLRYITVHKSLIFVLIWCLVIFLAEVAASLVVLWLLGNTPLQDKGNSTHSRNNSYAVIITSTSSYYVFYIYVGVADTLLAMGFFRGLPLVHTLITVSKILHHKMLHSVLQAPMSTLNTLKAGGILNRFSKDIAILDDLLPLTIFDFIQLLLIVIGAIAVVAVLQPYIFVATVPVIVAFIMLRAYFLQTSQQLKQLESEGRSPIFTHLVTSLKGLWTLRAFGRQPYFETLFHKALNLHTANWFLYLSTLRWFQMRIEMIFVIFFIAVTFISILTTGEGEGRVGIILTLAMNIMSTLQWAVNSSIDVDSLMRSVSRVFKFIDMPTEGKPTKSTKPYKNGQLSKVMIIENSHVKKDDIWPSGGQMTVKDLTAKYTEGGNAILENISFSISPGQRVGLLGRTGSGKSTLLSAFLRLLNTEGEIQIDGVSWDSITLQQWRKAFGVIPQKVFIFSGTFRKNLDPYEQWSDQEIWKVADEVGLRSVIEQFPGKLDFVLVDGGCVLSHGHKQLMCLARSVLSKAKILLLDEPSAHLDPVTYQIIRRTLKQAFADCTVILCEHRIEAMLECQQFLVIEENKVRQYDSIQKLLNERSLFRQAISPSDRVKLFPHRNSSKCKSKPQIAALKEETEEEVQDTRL
In short: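 Chemiluminescent read-out of surface HRP (15 min, dark) after PBS washes. Activity is normalized as 100×(sample−DMSO)/(3 μM co-corrector alone−DMSO).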

ΔF508-CFTR [2] = molecular target: T1, ΔF508-CFTR; experiment: CFTR cell surface levels using HRP-tagged ΔF508-CFTR expressing CFBE cells, intrinsic corrector capacity; design: % Activation: concentration or dose not given beside the values; conditions: HRP-tagged ΔF508-CFTR expressing CFBE41o- cells, compound alone (intrinsic corrector capacity), 20 hours at 33° C.; for EC50: read-out: EC50
In short: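 Read-out: chemiluminescent HRP activity of ECL4-HRP-tagged ΔF508-CFTR at the cell surface, 15 min substrate in dark. Normalized as 100×(sample−DMSO)/(positive control−DMSO).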

CFTR ΔF508 = molecular target: T2, CFTR ΔF508 (Homo sapiens, UniProt P13569, DEL508-508); experiment: Chronic TECC assay, primary bronchial epithelial cells of CF patients homozygous for CFTR ΔF508 (corrector, co-corrector and potentiator); conditions: chronic TECC, AUC = full area under the curve upon forskolin stimulation; for EC50: read-out: EC50 (nM) (AUC**); for % Activity at 1 μM (AUC**): test compound at 1 μM
T2 construct: bronchial epithelial cells isolated from CF patients homozygous for the CFTR ΔF508 mutation; McGill University; Asterand; University of North Carolina hAEC-CF; host or cells: primary human bronchial epithelial cells from CF patients homozygous for ΔF508, differentiated at air-liquid interface
T2 sequence (P13569 with tags, fused parts or gaps DEL508-508): as above
In short: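 Primary bronchial epithelial cells from ΔF508-homozygous CF patients on collagen IV-coated Transwells were chronically treated with test compound plus corrector and potentiator, which were re-added before recording. Ieq was derived from PD and Rt in NaCl-Ringer, pH 7.4, at 37° C, with apical amiloride and bilateral forskolin, recorded every 2 min over 20 min. Ieq increase was normalized to controls, and EC50 was taken from per-well concentrations.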

| Compound | % Activation (ΔF508-CFTR [1]) [%] | EC50 (ΔF508-CFTR [1]) [nM] | % Activation (ΔF508-CFTR [2]) [%] | EC50 (ΔF508-CFTR [2]) [nM] | EC50 (CFTR ΔF508) [nM] | % Activity at 1 μM (AUC**) (CFTR ΔF508) [%] |
| --- | --- | --- | --- | --- | --- | --- |
| COCCS(=O)(=O)NC(=O)c1cc(-c2ccc(N3CCOCC3)cc2)c2c(OC(C)C)nn(-c3ccccc3)c2n1 [Compound 226, N-(2-methoxyethanesulfonyl)-4-[4-(morpholin-4-yl)phenyl]-1-phenyl-3-[(propan-2-yl)oxy]-1H-pyrazolo[3,4-b]pyridine-6-carboxamide] | 392.95 | 386 | 206.7 | 445 | 56 | 530 |
| CS(=O)(=O)NC(=O)c1cc(N2CCC(OC3CCCC3)CC2)c2c(C3CCC3)nn(-c3ccccc3)c2n1 [Compound 228, 3-cyclobutyl-4-[4-(cyclopentyloxy)piperidin-1-yl]-N-(methanesulfonyl)-1-phenyl-1H-pyrazolo[3,4-b]pyridine-6-carboxamide] | 395.1 | 335 | 217.9 | 490 | 32 | 240 |
| CS(=O)(=O)NC(=O)c1cc(N2CCC(OC3CCCCC3)CC2)c2c(C3CCC3)nn(-c3ccccc3)c2n1 [Compound 229, 3-cyclobutyl-4-[4-(cyclohexyloxy)piperidin-1-yl]-N-(methanesulfonyl)-1-phenyl-1H-pyrazolo[3,4-b]pyridine-6-carboxamide] | 418.65 | 366 | 174.2 | 414 | 20 | 430 |
| CS(=O)(=O)NC(=O)c1cc(N2CCC(OCC3CC3)CC2)c2c(C3CCC3)nn(-c3ccccc3)c2n1 [Compound 230, 3-cyclobutyl-4-[4-(cyclopropylmethoxy)piperidin-1-yl]-N-(methanesulfonyl)-1-phenyl-1H-pyrazolo[3,4-b]pyridine-6-carboxamide] | 440.1 | 180 | 243.75 | 406 | 27 | 265.44 |
| COCCS(=O)(=O)NC(=O)c1cc(N2CCC(COC)CC2)c2c(C(C)C)nn(-c3ccc(F)cc3)c2n1 [Compound 236, 1-(4-fluorophenyl)-N-(2-methoxyethanesulfonyl)-4-[4-(methoxymethyl)piperidin-1-yl]-3-(propan-2-yl)-1H-pyrazolo[3,4-b]pyridine-6-carboxamide] | 497.5 | 93.2 | 309.83 | 316 | 80 | 434.22 |
| CS(=O)(=O)NC(=O)c1cc(OCC2CCC(F)(F)C2)c2c(C3CCC3)nn(-c3ccccc3)c2n1 (stereo not shown) [Compound 238, 3-cyclobutyl-4-[(3,3-difluorocyclopentyl)methoxy]-N-(methanesulfonyl)-1-phenyl-1H-pyrazolo[3,4-b]pyridine-6-carboxamide] | 347.55 | 219 | 159.83 | 601 | – | 521.96 |
| CC(C)c1nn(-c2ccc(F)cc2)c2nc(C(=O)NS(C)(=O)=O)cc(N3CCC(C#N)CC3)c12 [Compound 240, 4-(4-cyanopiperidin-1-yl)-1-(4-fluorophenyl)-N-(methanesulfonyl)-3-(propan-2-yl)-1H-pyrazolo[3,4-b]pyridine-6-carboxamide] | 312.8 | 139 | 176.67 | 377 | 140 | 288.71 |
| COC(C)C1CCN(c2cc(C(=O)NS(C)(=O)=O)nc3c2c(C2CCC2)nn3-c2ccccc2)CC1 (stereo not shown) [Compound 241, 3-cyclobutyl-N-(methanesulfonyl)-4-[4-(1-methoxyethyl)piperidin-1-yl]-1-phenyl-1H-pyrazolo[3,4-b]pyridine-6-carboxamide] | 488.15 | 82.2 | 261.93 | 366 | < 10 | 400 |
| COC(C)(C1CCN(c2cc(C(=O)NS(C)(=O)=O)nc3c2c(C2CCC2)nn3-c2ccccc2)CC1)C(F)(F)F (stereo not shown) [Compound 242, 3-cyclobutyl-N-(methanesulfonyl)-1-phenyl-4-[4-(1,1,1-trifluoro-2-methoxypropan-2-yl)piperidin-1-yl]-1H-pyrazolo[3,4-b]pyridine-6-carboxamide] | 459.15 | 203 | 242.1 | 283 | 14 | 308.45 |
| CS(=O)(=O)NC(=O)c1cc(OCCN2CCS(=O)(=O)CC2)c2c(C3CCC3)nn(-c3ccccc3)c2n1 [Compound 243, 3-cyclobutyl-4-[2-(1,1-dioxo-1λ^6,4-thiazinan-4-yl)ethoxy]-N-(methanesulfonyl)-1-phenyl-1H-pyrazolo[3,4-b]pyridine-6-carboxamide] | 204.1 | 3330 | 78.11 | 3340 | – | 165.81 |
| CS(=O)(=O)NC(=O)c1cc(N2CCC(CO)CC2)c2c(C3CCC3)nn(-c3ccccc3)c2n1 [Compound 244, 3-cyclobutyl-4-[4-(hydroxymethyl)piperidin-1-yl]-N-(methanesulfonyl)-1-phenyl-1H-pyrazolo[3,4-b]pyridine-6-carboxamide] | 290.6 | 413 | 182.7 | 381 | – | 238.89 |
| COCC1CCN(c2cc(C(=O)NS(=O)(=O)c3cnn(C)c3)nc3c2c(C2CCC2)nn3-c2ccccc2)CC1 [Compound 245, 3-cyclobutyl-4-[4-(methoxymethyl)piperidin-1-yl]-N-(1-methyl-1H-pyrazole-4-sulfonyl)-1-phenyl-1H-pyrazolo[3,4-b]pyridine-6-carboxamide] | 460 | 694 | 228 | 495 | – | 628.25 |
| COCCN(CCOC)c1ccc(-c2cc(C(=O)NS(C)(=O)=O)nc3c2c(C2CCC2)nn3-c2ccccc2)cn1 [Compound 246, 4-{6-[bis(2-methoxyethyl)amino]pyridin-3-yl}-3-cyclobutyl-N-(methanesulfonyl)-1-phenyl-1H-pyrazolo[3,4-b]pyridine-6-carboxamide] | 331.65 | 77.3 | 112.1 | 371 | 61 | 301.36 |
| COCC1(OC)CCN(c2cc(C(=O)NS(C)(=O)=O)nc3c2c(C2CCC2)nn3-c2ccccc2)CC1 [Compound 247, 3-cyclobutyl-N-(methanesulfonyl)-4-[4-methoxy-4-(methoxymethyl)piperidin-1-yl]-1-phenyl-1H-pyrazolo[3,4-b]pyridine-6-carboxamide] | 281.7 | 221 | 126.8 | 460 | 81 | 422.93 |
| COCC1CCN(c2cc(C(=O)NS(C)(=O)=O)nc3c2c(C(C)C)nn3-c2ccnc(N3CCOCC3)c2)CC1 [Compound 248, N-(methanesulfonyl)-4-[4-(methoxymethyl)piperidin-1-yl]-1-[2-(morpholin-4-yl)pyridin-4-yl]-3-(propan-2-yl)-1H-pyrazolo[3,4-b]pyridine-6-carboxamide] | 450.6 | 221 | 234.6 | 371 | – | 275.96 |
| COCCS(=O)(=O)NC(=O)c1cc(N2CCC(COC)CC2)c2c(C(C)C)nn(-c3ccnc(N4CCOCC4)c3)c2n1 [Compound 249, N-(2-methoxyethanesulfonyl)-4-[4-(methoxymethyl)piperidin-1-yl]-1-[2-(morpholin-4-yl)pyridin-4-yl]-3-(propan-2-yl)-1H-pyrazolo[3,4-b]pyridine-6-carboxamide] | 468.15 | 231 | 187.6 | 371 | – | 271.29 |
| COCC1CCN(c2cc(C(=O)NS(=O)(=O)c3cn(C)c(C)n3)nc3c2c(C2CCC2)nn3-c2ccccc2)CC1 [Compound 250, 3-cyclobutyl-N-(1,2-dimethyl-1H-imidazole-4-sulfonyl)-4-[4-(methoxymethyl)piperidin-1-yl]-1-phenyl-1H-pyrazolo[3,4-b]pyridine-6-carboxamide] | 440.4 | 372 | 232.7 | 514 | – | 331.21 |
| COCCS(=O)(=O)NC(=O)c1cc(N2CCC(COC)CC2)c2c(C(C)C)nn(C3CCCCC3)c2n1 [Compound 251, 1-cyclohexyl-N-(2-methoxyethanesulfonyl)-4-[4-(methoxymethyl)piperidin-1-yl]-3-(propan-2-yl)-1H-pyrazolo[3,4-b]pyridine-6-carboxamide] | 488.7 | 367 | 273.3 | 634 | – | 336.34 |
